Assay [1] concerns the target T1, rho transcription termination factor (Escherichia coli, UniProt P0AG30). The following applies: for IC50: read-out: I50, rho poly(C)-dependent ATP hydrolysis; for rho inhibition at 4000 μM: 4000 μM metal. As to the method: Rho poly(C)-dependent ATPase assay. See, generally, Sharp et al., (1983) A kinetic mechanism for the poly(C)-dependent ATPase of the Escherichia coli transcription termination protein, rho, J. Biol. Chem. 258, 3482-3486. The ribonucleotide-stimulated ATPase activity of rho at 32° C. was assayed by the amount of ^32P-labeled inorganic phosphate hydrolyzed from ATP after separation on PEI-TLC plates (prerun with water and dried) using 0.75 M potassium phosphate (pH 3.5) as the mobile phase. Reactions were initiated by adding ATP (varying concentrations) and 0.5 μCi [γ-^32P] ATP to the solution containing 40 mM Tris-HCl (pH 7.9), 50 mM KCl, 100 nM or 250 nM poly(C), 100 or 250 nM rho (monomer) and MgCl2 (1 mM or 10 mM). The TLC plates were exposed to PhosphorImager plates (Fuji and Molecular Dynamics) (3 h), scanned on a Storm 860 PC PhosphorImager and analyzed using Molecular Dynamic's ImageQuant 5.0. The initial rates of the reactions were determined by plotting the amount of ATP hydrolyzed against time. Each reaction was performed in duplicate and the results averaged.
B. Divalent Metal Activation of Rho in the Presence of MgCl2. To provide additional information concerning the roles of divalent metals in rho activation, the poly(C)-dependent assays were repeated in the presence of 10 mM MgCl2 and varying concentrations (10, 20, 40, 80, 125, 160, 250, 320, 500, 640 μM) of the divalent metals.

Assay [2] has as its target T1, rho transcription termination factor. The following applies: for Vmax(app) / % activity (Vmax or Vpeak) / % efficiency (Vmax/KM or Vpeak/KM) / Vpeak(app): Mg^2+-free; for Vmax(app) / Vpeak(app): from activation curves; for % activity (Vmax or Vpeak) / % efficiency (Vmax/KM or Vpeak/KM): relative to Mg^2+; for metal activation profile: absence of MgCl2, 1.9-4000 μM metal; for n (Hill): nonlinear regression of velocity curves; for effect on rho poly(C)-dependent ATP hydrolysis in the absence of MgCl2: (DL)DTT-free buffer; for peak velocity / total metal concentration at peak velocity: absence of MgCl2, FIG. 8.
Protocol: Rho poly(C)-dependent ATPase assay. […] The ribonucleotide-stimulated ATPase activity of rho at 32° C. was assayed by the amount of ^32P-labeled inorganic phosphate hydrolyzed from ATP after separation on PEI-TLC plates (prerun with water and dried) using 0.75 M potassium phosphate (pH 3.5) as the mobile phase. Reactions were initiated by adding ATP (varying concentrations) and 0.5 μCi [γ-^32P] ATP to the solution containing 40 mM Tris-HCl (pH 7.9), 50 mM KCl, 100 nM or 250 nM poly(C), 100 or 250 nM rho (monomer) and MgCl2 (1 mM or 10 mM). The TLC plates were exposed to PhosphorImager plates (Fuji and Molecular Dynamics) (3 h), scanned on a Storm 860 PC PhosphorImager and analyzed using Molecular Dynamic's ImageQuant 5.0. The initial rates of the reactions were determined by plotting the amount of ATP hydrolyzed against time. Each reaction was performed in duplicate and the results averaged.
A. Divalent Metal Activation of Rho in the Absence of MgCl2. […] For each metal, wild-type rho was pretreated with 20 mM EDTA to deplete the protein of residual metals and removed the excess EDTA and the metal•EDTA complex by a spin column.

For another assay, the target named is E. coli RecA (Escherichia coli, UniProt P0A7G6). Kind of assay: RecA poly(dT)-dependent ATP hydrolysis. It counts as biochemical. Particulars: bicyclomycin 0-400 μM; Zn-(L)DTT equimolar. The protocol: The validity of some of these new leads has been questioned, and attention is now focused on determining the inhibition pathway for these compounds and whether the inhibitors show enzyme specificity. McGovern et al., (2001) A common mechanism underlying promiscuous inhibitors from virtual and high-throughput screening, J. Med. Chem. 45, 1712-1722. Compounds that show nonspecific interaction have been defined as “promiscuous inhibitors.” The inhibitor specificity of Zn-(L)DTT complexes was tested. […] Next, the time dependency for chelate inhibition was examined because a well-behaved, reversible inhibitor is typically not affected by incubation time. McGovern et al., (2001). […] The effect of Zn-(L)DTT solutions on E. coli RecA poly (dT)-dependent ATP hydrolysis was determined.
Chain of E. coli RecA (P0A7G6 2-353): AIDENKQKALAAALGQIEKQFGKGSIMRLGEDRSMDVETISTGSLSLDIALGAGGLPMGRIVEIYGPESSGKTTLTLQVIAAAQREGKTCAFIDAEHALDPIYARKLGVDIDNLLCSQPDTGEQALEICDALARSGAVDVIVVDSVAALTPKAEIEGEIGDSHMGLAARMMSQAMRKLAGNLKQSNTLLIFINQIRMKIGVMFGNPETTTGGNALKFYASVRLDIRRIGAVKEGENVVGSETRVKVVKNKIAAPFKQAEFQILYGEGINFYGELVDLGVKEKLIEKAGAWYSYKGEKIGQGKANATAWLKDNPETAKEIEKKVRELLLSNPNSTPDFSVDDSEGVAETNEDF

The target in assay [3] is T1, rho transcription termination factor. The arrangement: made in house; host or cells: E. coli strain AR120 with plasmid p39-ASE. The following applies: poly(dC)-ribo(C)10 ATPase assay, literature (Magyar 1996); cited from earlier work.
Assay [4] has the same target. The experiment in a line: Rho poly(C)-dependent ATPase assay, inhibition by metal chelates and bicyclomycin. The arrangement: made in house; host or cells: E. coli strain AR120 with plasmid p39-ASE. Particulars: (DL)DTT 0.1-0.3 mM alone or equimolar with metal chloride, in presence of MgCl2. The format is biochemical, E. coli. The protocol:
Rho poly(C)-dependent ATPase assay.
The reactions were analyzed as described above.

Molecules are shown by their SMILES. Read-outs that look alike come from different tables or passages of the source.
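For % activity (Vmax or Vpeak) in this document: Poly(C)-dependent ATP hydrolysis by wild-type rho with other divalent metals in place of magnesium, radiolabeled ATP at varied levels, TLC phosphorimaging, initial rates from hydrolyzed ATP versus time.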
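For Vmax(app) in this document: Poly(C)-dependent ATP hydrolysis by wild-type rho with other divalent metals in place of magnesium, radiolabeled ATP at varied levels, TLC phosphorimaging, initial rates from hydrolyzed ATP versus time.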
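For metal activation profile in this document: Poly(C)-dependent ATP hydrolysis by wild-type rho with other divalent metals in place of magnesium, radiolabeled ATP at varied levels, TLC phosphorimaging, initial rates from hydrolyzed ATP versus time.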
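For n (Hill) in this document: Poly(C)-dependent ATP hydrolysis by wild-type rho with other divalent metals in place of magnesium, radiolabeled ATP at varied levels, TLC phosphorimaging, initial rates from hydrolyzed ATP versus time.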

T1 sequence (P0AG30 whole entry): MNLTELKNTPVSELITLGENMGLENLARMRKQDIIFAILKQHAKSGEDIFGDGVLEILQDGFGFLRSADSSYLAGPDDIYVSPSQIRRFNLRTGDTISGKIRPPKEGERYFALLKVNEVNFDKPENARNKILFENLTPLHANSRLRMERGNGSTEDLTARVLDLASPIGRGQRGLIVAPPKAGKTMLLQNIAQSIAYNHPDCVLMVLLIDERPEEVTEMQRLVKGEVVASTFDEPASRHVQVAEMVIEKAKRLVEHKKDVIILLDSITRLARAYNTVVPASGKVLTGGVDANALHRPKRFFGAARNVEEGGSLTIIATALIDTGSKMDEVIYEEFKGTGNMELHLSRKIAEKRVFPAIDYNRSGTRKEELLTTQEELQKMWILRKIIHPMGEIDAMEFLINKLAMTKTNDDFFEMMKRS

Consider `[Be+2].[Cl-].[Cl-]` [Be^2+], for which, in assay [1] (100 μM BeCl2, 10 mM MgCl2), the “activity at 100 μM” value was “almost complete loss of activity”. In assay [1] (10 mM MgCl2), the “effect on ATP hydrolysis rate in the presence of MgCl2” value (“effect on ATP hydrolysis rate” for short) is reported as “inhibited” and the IC50 was 63 µM. In assay [2], the “Vmax(app)” value is 0.21 mol/min/mg, the “% activity (Vmax or Vpeak)” value is 2% and the metal activation profile result is listed as “did not catalyze ATP hydrolysis”.

With `[Sr+2]` [Sr^2+], the “effect on ATP hydrolysis rate” value in assay [1] (10 mM MgCl2) is recorded as “negligible effects”. In assay [2], the “Vmax(app)” value amounted to 0.17 mol/min/mg, the “% activity (Vmax or Vpeak)” value worked out at 1%, the metal activation profile result was “did not catalyze ATP hydrolysis” and the “n (Hill)” value was determined as 1.

With `C=C1CCO[C@]2([C@@H](O)[C@@](C)(O)CO)NC(=O)[C@@]1(O)NC2=O` [bicyclomycin, Bicyclomycin], at E. coli RecA, the “effect on RecA poly(dT)-dependent ATP hydrolysis” value is given as “no loss in RecA ATPase activity”. The “inhibition kinetics with respect to ribo(C)10” value in assay [3] is listed as “mixed inhibition pattern”.

As for `[Co+2]` [Co^2+], the “effect on ATP hydrolysis rate” value in assay [1] (10 mM MgCl2) was “negligible effects”. Moreover, in assay [2], the “Vmax(app)” value came out at 7.65 mol/min/mg, the “% activity (Vmax or Vpeak)” value came out at 62%, the “% efficiency (Vmax/KM or Vpeak/KM)” value came out at 61% and the metal activation profile entry is “Michaelis-Menten kinetics”. The “n (Hill)” value in assay [2] came out at 1.

Take `[Hg+2]` [Hg^2+]: in assay [1] (10 mM MgCl2), the “rho inhibition at 4000 μM” value is given as about 50% and the “effect on ATP hydrolysis rate” value was “inhibited”. In addition, in assay [2], the “Vmax(app)” value is 0.78 mol/min/mg, the “% activity (Vmax or Vpeak)” value amounted to 6%, the “% efficiency (Vmax/KM or Vpeak/KM)” value was 29% and the metal activation profile result was “Michaelis-Menten kinetics”. Besides, the “n (Hill)” value in assay [2] turned out to be 1.

`[Cl][Mn][Cl]` [Mn^2+]: in assay [2], the “efficiency (Vmax/KM or Vpeak/KM) relative to Co^2+” value amounted to 1.6 times, the “effect on rho poly(C)-dependent ATP hydrolysis in the absence of MgCl2” value (from here on “effect … in the absence of MgCl2”) is “activated”, the “Vpeak(app)” value is 11.9 mol/min/mg and the “% activity (Vmax or Vpeak)” value worked out at 97%. For the same compound, in assay [2], the “% efficiency (Vmax/KM or Vpeak/KM)” value came out at 89%, the metal activation profile entry is “peak velocities”, the peak velocity is 11.9 µmol/min/mg and the “total metal concentration at peak velocity” value (from here on “total metal concentration”) worked out at 250 µM. Also, the “n (Hill)” value in assay [2] is 1. Besides, the “% of maximum activity at 4000 μM” value in assay [2] (4000 μM total metal) is on record as 10%.

In the case of `[O]=[V+2]` [VO^2+], in assay [1] (10 mM MgCl2), the “effect on ATP hydrolysis rate” value is reported as “negligible effects”. Further, in assay [2], the “Vmax(app)” value came to 0.78 mol/min/mg, the “% activity (Vmax or Vpeak)” value is recorded as 6%, the metal activation profile result was “Michaelis-Menten kinetics” and the “n (Hill)” value was 1.

`[Cl-].[Cl-].[Zn+2]` [Zn^2+]: in assay [1] (10 mM MgCl2), the “rho inhibition at 4000 μM” value was about 50%, the “effect on ATP hydrolysis rate” value is listed as “inhibited” and the IC50 turned out to be 4000 µM. Also, the “change of I50 on 10-fold poly(C)” value in assay [1] (poly(C) concentration increased 10-fold) is “increased only slightly”. In addition, the IC50 in assay [1] (1 mM MgCl2, estimated) was 190 µM. The “activity remaining at 190 μM total metal” value in assay [2] (190 μM [Zn^2+]total) was 50%. Also, the “velocity at 1000 μM total metal” value in assay [2] (1000 μM [Zn^2+]total) is listed as “zero”. In assay [2], the “effect … in the absence of MgCl2” value was “activated”, the “Vpeak(app)” value worked out at 9.98 mol/min/mg, the “% activity (Vmax or Vpeak)” value is 81% and the “% efficiency (Vmax/KM or Vpeak/KM)” value is 51%. Also, in assay [2], the metal activation profile entry was “peak velocities”, the peak velocity amounted to 9.4 µmol/min/mg, the “total metal concentration” value was determined as 125 µM and the “n (Hill)” value is 5.5. Also, the IC50 in assay [2] (read-out: I50, rho poly(C)-dependent ATP hydrolysis, 0 mM MgCl2, estimated) was 190 µM.

Regarding `[Cd+2]` [Cd^2+], the “effect on ATP hydrolysis rate” value in assay [1] (10 mM MgCl2) is “negligible effects”. For the same compound, in assay [2], the “effect … in the absence of MgCl2” value is “activated”, the “Vpeak(app)” value was 4.74 mol/min/mg, the “% activity (Vmax or Vpeak)” value was 39% and the “% efficiency (Vmax/KM or Vpeak/KM)” value is reported as 20%. In addition, in assay [2], the metal activation profile result was “peak velocities”, the peak velocity came to 4.8 µmol/min/mg, the “total metal concentration” value came to 65 µM and the “n (Hill)” value is on record as 4.6.

With `OC(CS)C(O)CS` (racemic) [(DL)DTT, dithiothreitol], in assay [4], the “effect on rho poly(C)-dependent ATP hydrolysis” value was “did not inactivate the enzyme”.

Take `[Cu+2]` [Cu^2+]: in assay [1] (10 mM MgCl2), the “effect on ATP hydrolysis rate” value was “inhibited” and the loss of activity is reported as about 30%. In assay [2], the “Vmax(app)” value was determined as 1.54 mol/min/mg, the “% activity (Vmax or Vpeak)” value worked out at 13%, the “% efficiency (Vmax/KM or Vpeak/KM)” value was determined as 39% and the metal activation profile result is “Michaelis-Menten kinetics”. Besides, the “n (Hill)” value in assay [2] is 1.

Take `[Cl][Ni][Cl]` [Ni^2+]: the “effect on ATP hydrolysis rate” value in assay [1] (10 mM MgCl2) is “negligible effects”. Besides, in assay [2], the “effect … in the absence of MgCl2” value was “activated”, the “Vmax(app)” value turned out to be 4.79 mol/min/mg, the “% activity (Vmax or Vpeak)” value stood at 39% and the “% efficiency (Vmax/KM or Vpeak/KM)” value is listed as 29%. Further, in assay [2], the metal activation profile result is given as “sigmoidal activation pattern” and the “n (Hill)” value is listed as 2.9.

For `[Ca+2]` [Ca^2+], the “effect on ATP hydrolysis rate” value in assay [1] (10 mM MgCl2) is reported as “negligible effects”. Moreover, in assay [2], the “Vmax(app)” value was found to be 3.13 mol/min/mg, the “% activity (Vmax or Vpeak)” value is 25%, the “% efficiency (Vmax/KM or Vpeak/KM)” value amounted to 74% and the metal activation profile entry was “Michaelis-Menten kinetics”. For the same compound, the “n (Hill)” value in assay [2] is recorded as 1.

With `[Mg+2]` [Mg^2+], in assay [2], the “efficiency (Vmax/KM or Vpeak/KM) relative to Co^2+” value was 1.5 times, the “Vmax(app)” value came to 12.3 mol/min/mg, the “% activity (Vmax or Vpeak)” value stood at 100% and the “% efficiency (Vmax/KM or Vpeak/KM)” value is given as 100%. In assay [2], the metal activation profile result was “Michaelis-Menten kinetics” and the “n (Hill)” value amounted to 1.
